Data from patent US20250051321A1, “TRICYCLIC DERIVATIVE AND PREPARATION METHOD THEREFOR AND APPLICATION THEREOF” (SHANGHAI JEMINCARE PHARMACEUTICAL CO., LTD., priority 2021, published 2025).
Where two headings read alike, the source gives them in different places.

What was measured:
[1] = molecular target: ATX (Homo sapiens (Human), UniProt Q13822); assay: ATX enzyme inhibition assay (Amplex UltraRed/choline oxidase/HRP, 16:0 Lyso PC substrate); assay type: biochemical
Method: All compounds were prepared as a 10 mM DMSO stock solution.
Solutions at pH 8.5 and pH 7.5 were prepared respectively with the following formulations:
All compounds, including the positive control compound, were diluted 5-fold from 10 mM to 2 mM with DMSO in the first step. The mixture was then diluted to 100 μM with 1× assay buffer.
3. Separate Detection of Compounds with 1× Assay Buffer at Two pH Values:
a) 5 μL of 10× compound diluent was added to a 384-well plate (Greiner 781209) using a motorized pipette (see the “experimental preparation” step). 5 μL of 1× assay buffer containing 5% DMSO was added to both negative and positive control wells. The plate was centrifuged at 300 rpm for 1 minute at room temperature.
b) 2× ATX ([…]) was prepared with 1× assay buffer, and 25 μL of 2× ATX was added to the plate using a motorized pipette. 25 μL of 1× assay buffer was added to the negative control wells and 25 μL of 2× ATX was added to the positive control wells. The plate was centrifuged at 300 rpm for 1 minute at room temperature.
The plate was incubated at room temperature for 10 minutes.
c) 2.5× working solution containing Amplex UltraRed reagent (125 μM), HRP (2.5 U/mL), choline oxidase (1.25 U/mL), and 16:0 Lyso PC (75 μM) was prepared with 1× assay buffer. 20 μL of 2.5× working solution was added to all reaction wells using a motorized pipette. The plate was centrifuged at 300 rpm for 1 minute at room temperature.
d) The plate was detected by SpectraMax with the following procedures: fluorescence mode; excitation at 550 nm; emission at 590 nm; kinetics; read once every 2 minutes; read continuously for 60 minutes.
The calculation formula of % inhibition (i.e., % inhibition rate) was as follows: […]
V0: X-axis is taken as 0 to 30 minutes, Y-axis is taken as fluorescence readings, and the slope corresponding to the straight line fitted by the software GraphPad Prism 8 is the initial response rate.
V0max: Average V0 of the positive control wells in the plate.
V0min: Average V0 of the negative control wells in the plate.
The IC50 of the compounds was calculated from a nonlinear regression line (dose-initial response rate) fitted by % inhibition and log value of compound concentration using the software GrahPad Prism 8.

[2] = test system: plasma LPA 18:1 and LPA 18:2; assay: Human plasma ex vivo assay (LPA 18:1 / 18:2 by LC-MS/MS); assay type: biochemical; conditions: 37° C., 2 hours
Method: The collected plasma was centrifuged at 4000 rpm for 15 minutes at 4° C. The supernatant was aliquoted into a 96-well plate (25 μL per well), sealed, and frozen at −80° C. for further use.
LPA 17:0 powder was dissolved in a mixed solution of water: isopropanol: formic acid (1:1:1) to a final concentration of […]. The mixture was aliquoted and frozen at −20° C.
1 volume of formic acid was added to 1000× methanol, mixed well, and stored at 4° C. a) The 96-well plate containing frozen plasma was removed from the −80° C. freezer and thawed on ice at room temperature. b) 6 μL of 50× LPA 17:0 (internal standard) and 264 μL of 0.1% FA were added to a clean well of the 96-well plate; the final concentration of LPA 17:0 (internal standard) was 50 nM. c) 6× compound was 1:3 serially diluted to a total of 8 concentrations, and 5 μL of the compound per well was added to the 96-well plate containing plasma. The maximum final concentration of the compound was 10 μM, and the final concentration of DMSO was 0.1%. The plate was centrifuged at 300 rpm for 30 seconds. The DMSO control sample reacted for 0 hours was used as the minimum value (Min), and the DMSO control sample reacted for 2 hours was used as the maximum value (Max). […]
d) The DMSO sample reacted for 0 hours was rapidly transferred to 0.1% FA solution containing the internal standard in step b) to terminate the reaction and precipitate plasma proteins. e) The 96-well plate containing plasma and compounds was rapidly incubated in a 37° C. incubator for 2 hours. After the incubation, 6 μL of 10× LPA 17:0 and 264 μL of 0.1% FA were added to each well to terminate the reaction and precipitate plasma proteins. […]
f) All the samples were mixed well with a pipette, and centrifuged at 4000 rpm for 10 minutes at 4° C. 150 μL of the supernatant was added to a 96-well U-bottom plate (Thermo 267245), sealed with silica gel, and then loaded. The contents of LPA 18:1 and LPA 18:2 in the samples were detected by LC-MS/MS system.
LPA 18:1(or 18:2) relative content=LPA 18:1(or 18:2) peak area/LPA 17:0 peak area Percentage reduction (%) in plasma LPA18:1(or 18:2)=(Max−X)/(Max−Min)*100 Max: LPA 18:1 (or 18:2) relative content of the DMSO sample reacted for 2 hours Min: LPA 18:1 (or 18:2) relative content of the DMSO sample reacted for 0 hours X: LPA 18:1 (or 18:2) relative content of the sample after compound treatment for 2 hours The IC50 of the compounds was calculated by fitting a nonlinear regression through percentage reduction in plasma LPA 18:1 (or 18:2) and log value of compound concentration using the software GraphPad Prism 8.
Y=Bottom+(Top−Bottom)/(1+10^((Log IC50−X)*Hill Slope))

[3] = assay buffer pH 8.5, read-out: IC50 (nM) pH 8.5
[4] = LPA 18:1, read-out: Human plasma ex vivo assay IC50 (18:1 LPA)
[5] = LPA 18:2, read-out: Human plasma ex vivo assay IC50 (18:2 LPA)
[6] = assay buffer pH 7.5, read-out: IC50 (nM) pH 7.5

Row | IC50 [1, 3] [nM] | IC50 [2, 4] [µM] | IC50 [2, 5] [µM] | IC50 [1, 6] [nM] | Structure (SMILES)
1 | 14 | 0.387 | 0.431 |  | C[C@@H]1CN(CC(=O)N2CC(O)C2)CCN1c1cc(F)c2nc3c(c(N(C)c4nc(-c5ccc(F)cc5)c(C#N)s4)c2c1)CC[C@H]3O (single isomer, unassigned) [Example E6-b]
2 | 15.2 | 0.369 | 0.351 |  | C[C@H]1CN(CC(=O)N2CC(O)C2)CCN1c1cc(F)c2nc3c(c(N(C)c4nc(-c5ccc(F)cc5)c(C#N)s4)c2c1)CC[C@@H]3O (single isomer, unassigned) [Example E7-a]
3 | 22.5 | 0.28 | 0.324 |  | C[C@H]1CN(c2cc(F)c3nc4c(c(N(C)c5nc(-c6ccc(F)cc6)c(C#N)s5)c3c2)CC[C@@H]4O)CCN1CC(=O)N1CC(O)C1 (single isomer, unassigned) [Example E8-a]
4 | 21.5 | 0.464 | 0.392 |  | C[C@@H]1CN(c2cc(F)c3nc4c(c(N(C)c5nc(-c6ccc(F)cc6)c(C#N)s5)c3c2)CC[C@@H]4O)CCN1CC(=O)N1CC(O)C1 (single isomer, unassigned) [Example E9-a]
5 | 18.4 | 0.209 | 0.199 |  | C[C@@H]1CN(c2cc(F)c3nc4c(c(N(C)c5nc(-c6ccc(F)cc6)c(C#N)s5)c3c2)CC[C@H]4O)CCN1CC(=O)N1CC(O)C1 (single isomer, unassigned) [Example E9-b]
6 | 17.9 | 0.384 | 0.43 |  | CN(c1nc(-c2ccc(F)cc2)c(C#N)s1)c1c2c(nc3c(F)cc(N4CCN(CC(=O)N5CC(C)(O)C5)CC4)cc13)[C@@H](O)CC2 (single isomer, unassigned) [Example E10-a]
7 | 14.4 | 0.263 | 0.261 |  | CN(c1nc(-c2ccc(F)cc2)c(C#N)s1)c1c2c(nc3c(F)cc(N4CCN(CC(=O)N5CC(C)(O)C5)CC4)cc13)[C@H](O)CC2 (single isomer, unassigned) [Example E10-b]
8 | 19.8 | 0.385 | 0.385 |  | CN(c1nc(-c2ccc(F)cc2)c(C#N)s1)c1c2c(nc3c(F)cc(N4CC5(CN(C(=O)[C@@H]6CCOC6)C5)C4)cc13)[C@@H](O)CC2 (single isomer, unassigned) [Example E13-a]
9 | 14.9 | 0.392 | 0.389 |  | CN(c1nc(-c2ccc(F)cc2)c(C#N)s1)c1c2c(nc3c(F)cc(N4CC5(CN(C(=O)C6(O)CCOCC6)C5)C4)cc13)[C@@H](O)CC2 (single isomer, unassigned) [Example E15-a]
10 | 22.9 | 0.207 | 0.361 |  | CN(c1nc(-c2ccc(F)cc2)c(C#N)s1)c1c2c(nc3c(F)cc(N4CC5(CN(C(=O)[C@]6(O)CCOC6)C5)C4)cc13)[C@H](O)CC2 (single isomer, unassigned) [Example E19-1a]
11 | 27.2 | 0.217 | 0.479 |  | CN(c1nc(-c2ccc(F)cc2)c(C#N)s1)c1c2c(nc3c(F)cc(N4CC5(CN(C(=O)[C@]6(O)CCOC6)C5)C4)cc13)[C@@H](O)CC2 (single isomer, unassigned) [Example E19-1b]
12 | 26.7 | 0.207 | 0.203 |  | CN(c1nc(-c2ccc(F)cc2)c(C#N)s1)c1c2c(nc3c(F)cc(N4CC5(CN(C(=O)[C@@]6(O)CCOC6)C5)C4)cc13)[C@@H](O)CC2 (single isomer, unassigned) [Example E19-2a]
13 | 334 | 0.113 | 0.31 |  | CN(c1nc(-c2ccc(F)cc2)c(C#N)s1)c1c2c(nc3c(F)cc(N4CC5(CN(C(=O)[C@@]6(O)CCOC6)C5)C4)cc13)[C@@H](O)CC2 (single isomer, unassigned) [Example E19-2b]
14 | 27.7 | 0.183 | 0.196 | 138 | CN(c1nc(-c2ccc(F)cc2)c(C#N)s1)c1c2c(nc3ccc(N4CCN(CC(=O)N5CC(O)C5)CC4)cc13)CCC2 [Example A1]
15 | 96.7 | 0.085 | 0.0735 | 624 | CN(c1nc(-c2ccc(F)cc2)c(C#N)s1)c1c2c(nc3ccc(N4CCN(CC(=O)N5CC(O)C5)CC4)cc13)COC2 [Example A2]
16 | 27.8 | 0.109 | 0.103 | 214 | CN(c1nc(-c2ccc(F)cc2)c(C#N)s1)c1c2c(nc3ccc(N4CCN(CC(=O)N5CC(O)C5)CC4)cc13)CCO2 [Example A3]
17 | 52.1 | 0.16 | 0.176 | 174 | CN(c1nc(-c2ccc(F)cc2)c(C#N)s1)c1c2c(nc3c(F)cc(N4CCN(CC(=O)N5CC(O)C5)CC4)cc13)CCC2 [Example A4]
18 | 35.7 |  |  |  | CN(c1nc(-c2ccc(F)cc2)c(C#N)s1)c1c2c(nc3c(F)cc(N4CC5(CN(CC(=O)N6CCCC6)C5)C4)cc13)C(O)CC2 (centres unmarked) [Example E11]
19 | 97.6 |  |  |  | CN(c1nc(-c2ccc(F)cc2)c(C#N)s1)c1c2c(nc3c(F)cc(N4CC5(CN(CC(=O)N6CC[C@H](O)C6)C5)C4)cc13)C(O)CC2 (some centres unmarked) [Example E12]
20 | 23.5 |  |  |  | CN(c1nc(-c2ccc(F)cc2)c(C#N)s1)c1c2c(nc3c(F)cc(N4CC5(CN(C(=O)[C@@H]6CCOC6)C5)C4)cc13)C(O)CC2 (some centres unmarked) [Example E13]
21 | 20.4 |  |  |  | CN(c1nc(-c2ccc(F)cc2)c(C#N)s1)c1c2c(nc3c(F)cc(N4CC5(CN(C(=O)C6(O)CCOC6)C5)C4)cc13)C(O)CC2 (centres unmarked) [Example E19]
22 | 23.5 |  |  |  | CN(c1nc(-c2ccc(F)cc2)c(C#N)s1)c1c2c(nc3c(F)cc(N4CC5(CN(C(=O)C6COCC6O)C5)C4)cc13)C(O)CC2 (centres unmarked) [Example E20]
23 | 44.9 |  |  |  | CN(c1nc(-c2ccc(F)cc2)c(C#N)s1)c1c2c(nc3c(F)cc(N4CCN(CC(=O)NO)CC4)cc13)CC2 [Example F1]
24 | 65.2 |  |  |  | CN(c1nc(-c2ccc(F)cc2)c(C#N)s1)c1c2c(nc3c(F)cc(N4CCN(CC(=O)N5CC6(CC(O)C6)C5)CC4)cc13)CC2 [Example F2]
25 | 60.6 |  |  |  | CN(c1nc(-c2ccc(F)cc2)c(C#N)s1)c1c2c(nc3c(F)cc(N4CCN(CC(=O)N5CC6(CCOCC6)C5)CC4)cc13)CC2 [Example F3]
26 | 19.6 |  |  |  | CN(c1nc(-c2ccc(F)cc2)c(C#N)s1)c1c2c(nc3c(F)cc(N4CCN(CC(=O)N5CC6(CCS(=O)(=O)CC6)C5)CC4)cc13)CC2 [Example F4]
27 | 19.9 |  |  |  | CN(c1nc(-c2ccc(F)cc2)c(C#N)s1)c1c2c(nc3c(F)cc(N4CCN(CC(=O)N5CC6(CCC(O)CC6)C5)CC4)cc13)CC2 [Example F5]
